In ChEMBL document CHEMBL1201862, “PubChem BioAssay data set” (2004):
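These data come from cells grown in 96-well plates and exposed to compound for 48 hours at five concentrations. GI50 is the concentration that inhibits growth by half.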 Calls of active or inactive are those of the source. Cut-off read from the data, not from the text of the source: active = GI50 up to about 1.1 µM and inactive = higher.

How the values were obtained:
Experiment in all cases: growth of human tumour cells (NCI), 48 h
[1] = test system: LOX IMVI
[2] = test system: SK-OV-3
[3] = test system: OVCAR-4
[4] = test system: Hs-578T
[5] = test system: HOP-62
[6] = test system: HT-29
[7] = test system: COLO 205
[8] = test system: UACC-257
[9] = test system: NCI/ADR-RES
[10] = test system: A498
[11] = test system: KM12
[12] = test system: SNB-75
[13] = test system: SF-268
[14] = test system: ACHN
[15] = test system: TK-10
[16] = test system: HOP-92
[17] = test system: MDA-MB-231
[18] = test system: SW-620
[19] = test system: U-251
[20] = test system: M14

SMILES	GI50 [1]	GI50 [2]	GI50 [3]	GI50 [4]	GI50 [5]	GI50 [6]	GI50 [7]	GI50 [8]	GI50 [9]	GI50 [10]	GI50 [11]	GI50 [12]	GI50 [13]	GI50 [14]	GI50 [15]	GI50 [16]	GI50 [17]	GI50 [18]	GI50 [19]	GI50 [20]
CCOc1cc(NC(C)=O)ccc1C(=O)N/N=C/c1ccco1	38.4 µM (inactive)	> 100 µM (inactive)	> 100 µM (inactive)	> 100 µM (inactive)	> 100 µM (inactive)	> 100 µM (inactive)	44.6 µM (inactive)	> 100 µM (inactive)	> 100 µM (inactive)	62.8 µM (inactive)	> 100 µM (inactive)	> 100 µM (inactive)	> 100 µM (inactive)	35.6 µM (inactive)	> 100 µM (inactive)	11.8 µM (inactive)	> 100 µM (inactive)	> 100 µM (inactive)	–	–
CCNc1ncnc2sc(SCc3ccccc3)nc12	95.9 µM (inactive)	> 100 µM (inactive)	> 100 µM (inactive)	> 100 µM (inactive)	> 100 µM (inactive)	58.1 µM (inactive)	36.1 µM (inactive)	79.1 µM (inactive)	34.8 µM (inactive)	61.9 µM (inactive)	48.4 µM (inactive)	> 100 µM (inactive)	> 100 µM (inactive)	70.6 µM (inactive)	60.7 µM (inactive)	19.6 µM (inactive)	> 100 µM (inactive)	> 100 µM (inactive)	> 100 µM (inactive)	> 100 µM (inactive)
C(=N\c1nc2cc3sc(/N=C/c4ccccc4)nc3cc2s1)/c1ccccc1	38.9 µM (inactive)	> 100 µM (inactive)	> 89.5 µM (inactive)	> 45.9 µM (inactive)	> 68.2 µM (inactive)	37.1 µM (inactive)	4.01 µM (inactive)	> 100 µM (inactive)	> 80.4 µM (inactive)	> 95.7 µM (inactive)	> 100 µM (inactive)	> 100 µM (inactive)	> 100 µM (inactive)	55.8 µM (inactive)	> 50.6 µM (inactive)	> 76.9 µM (inactive)	> 95.3 µM (inactive)	37.4 µM (inactive)	> 94.6 µM (inactive)	> 100 µM (inactive)
CCN(CC)C(=S)SS(=O)(=O)c1ccccc1C(=O)O	> 100 µM (inactive)	> 100 µM (inactive)	> 100 µM (inactive)	> 100 µM (inactive)	> 100 µM (inactive)	> 100 µM (inactive)	> 100 µM (inactive)	> 100 µM (inactive)	> 100 µM (inactive)	> 38 µM (inactive)	> 100 µM (inactive)	> 89.1 µM (inactive)	98.2 µM (inactive)	> 70.8 µM (inactive)	> 100 µM (inactive)	> 100 µM (inactive)	> 100 µM (inactive)	> 100 µM (inactive)	99.8 µM (inactive)	> 96.4 µM (inactive)
COc1ccc2[nH]c3c(c2c1)COc1ccccc1C3=O	> 100 µM (inactive)	> 100 µM (inactive)	> 100 µM (inactive)	69 µM (inactive)	> 100 µM (inactive)	> 100 µM (inactive)	> 100 µM (inactive)	> 100 µM (inactive)	> 100 µM (inactive)	> 100 µM (inactive)	> 100 µM (inactive)	18.6 µM (inactive)	> 100 µM (inactive)	> 100 µM (inactive)	> 100 µM (inactive)	> 100 µM (inactive)	> 100 µM (inactive)	> 100 µM (inactive)	> 100 µM (inactive)	> 100 µM (inactive)
O=C1/C(=C/Cc2ccco2)N=C(c2ccccc2)N1c1nc2ccc(Sc3ccccc3)cc2[nH]1	18.8 µM (inactive)	25.9 µM (inactive)	24.2 µM (inactive)	18.9 µM (inactive)	30.1 µM (inactive)	25 µM (inactive)	18.2 µM (inactive)	17.7 µM (inactive)	23.6 µM (inactive)	8.36 µM (inactive)	16.7 µM (inactive)	19.5 µM (inactive)	18.9 µM (inactive)	19.4 µM (inactive)	35.4 µM (inactive)	18.7 µM (inactive)	20.5 µM (inactive)	34 µM (inactive)	19.7 µM (inactive)	19.7 µM (inactive)
C/C(CC(O)(C(F)(F)F)C(F)(F)F)=N\N	> 10 µM (inactive)	> 10 µM (inactive)	> 10 µM (inactive)	> 10 µM (inactive)	> 10 µM (inactive)	> 10 µM (inactive)	> 10 µM (inactive)	> 10 µM (inactive)	> 10 µM (inactive)	> 10 µM (inactive)	> 10 µM (inactive)	> 10 µM (inactive)	> 10 µM (inactive)	> 10 µM (inactive)	> 10 µM (inactive)	> 10 µM (inactive)	> 10 µM (inactive)	> 10 µM (inactive)	> 10 µM (inactive)	> 10 µM (inactive)
Cc1cc(S(=O)(=O)NC2=Nc3ccccc3C(c3ccccc3)N2)c(S)cc1Cl (stereo unspecified)	39.3 µM (inactive)	> 100 µM (inactive)	13.6 µM (inactive)	> 100 µM (inactive)	> 100 µM (inactive)	> 100 µM (inactive)	> 100 µM (inactive)	> 100 µM (inactive)	> 100 µM (inactive)	> 100 µM (inactive)	58.6 µM (inactive)	> 100 µM (inactive)	39 µM (inactive)	> 100 µM (inactive)	> 100 µM (inactive)	> 100 µM (inactive)	95.3 µM (inactive)	> 100 µM (inactive)	37.7 µM (inactive)	> 100 µM (inactive)
CC1(C)CCC[C@@]2(C)C1CC[C@@]1(CO1)[C@@H]2/C=C\C(C=O)CC=O (stereo partly specified)	> 67.1 µM (inactive)	> 100 µM (inactive)	> 100 µM (inactive)	> 100 µM (inactive)	> 100 µM (inactive)	> 56.6 µM (inactive)	> 91.8 µM (inactive)	> 100 µM (inactive)	> 100 µM (inactive)	> 100 µM (inactive)	> 67.9 µM (inactive)	> 80.5 µM (inactive)	> 100 µM (inactive)	> 100 µM (inactive)	> 100 µM (inactive)	> 100 µM (inactive)	> 100 µM (inactive)	67.1 µM (inactive)	> 96.6 µM (inactive)	> 100 µM (inactive)
CCCCCCCCCCCCP(=O)(O)OCC(N)C(=O)O (stereo unspecified)	24.9 µM (inactive)	21.6 µM (inactive)	76.2 µM (inactive)	20.2 µM (inactive)	16.1 µM (inactive)	33.7 µM (inactive)	45.8 µM (inactive)	> 100 µM (inactive)	31.4 µM (inactive)	23.5 µM (inactive)	–	11.4 µM (inactive)	23.9 µM (inactive)	40.3 µM (inactive)	33.3 µM (inactive)	25.4 µM (inactive)	16.4 µM (inactive)	40.3 µM (inactive)	11.4 µM (inactive)	48.8 µM (inactive)
O=C(Cc1ccccc1F)NC1=C(Cl)C(=O)c2ccccc2C1=O	1.75 µM (inactive)	3.04 µM (inactive)	0.659 µM (active)	0.656 µM (active)	5.48 µM (inactive)	5.75 µM (inactive)	3.23 µM (inactive)	–	1.95 µM (inactive)	4.69 µM (inactive)	0.524 µM (active)	0.655 µM (active)	–	0.543 µM (active)	2.4 µM (inactive)	0.887 µM (active)	2.69 µM (inactive)	0.721 µM (active)	0.65 µM (active)	0.802 µM (active)
COC(=O)[C@@H]1[C@H](O)CC[C@H]2[C@@]1(C)CC[C@@H](C)[C@]2(COC(C)=O)CC(=O)c1ccoc1	> 50 µM (inactive)	> 50 µM (inactive)	25.2 µM (inactive)	> 50 µM (inactive)	–	> 50 µM (inactive)	> 50 µM (inactive)	> 50 µM (inactive)	> 50 µM (inactive)	> 50 µM (inactive)	> 50 µM (inactive)	> 50 µM (inactive)	> 50 µM (inactive)	> 50 µM (inactive)	> 50 µM (inactive)	> 50 µM (inactive)	> 50 µM (inactive)	> 50 µM (inactive)	> 50 µM (inactive)	> 50 µM (inactive)
CC(=O)O[C@H]1C(=O)[C@@]2(C)[C@H]([C@H](OC(=O)c3ccccc3)[C@]3(O)C[C@H](OC(=O)[C@H](O)[C@@H](NC(=O)c4ccc(N)cc4)c4ccccc4)C(C)=C1C3(C)C)[C@]1(OC(C)=O)CO[C@@H]1C[C@@H]2O	< 0.005 µM (active)	0.0134 µM (active)	> 31.8 µM (inactive)	< 0.005 µM (active)	0.0253 µM (active)	< 0.005 µM (active)	< 0.005 µM (active)	–	15.3 µM (inactive)	0.0902 µM (active)	< 0.005 µM (active)	< 0.005 µM (active)	0.0107 µM (active)	0.711 µM (active)	0.173 µM (active)	35.1 µM (inactive)	0.22 µM (active)	< 0.005 µM (active)	< 0.005 µM (active)	0.0188 µM (active)
CCOC(=O)c1cc(Br)c(-c2cc(C)co2)[nH]1	> 100 µM (inactive)	> 100 µM (inactive)	> 100 µM (inactive)	84.5 µM (inactive)	> 100 µM (inactive)	> 100 µM (inactive)	> 100 µM (inactive)	> 100 µM (inactive)	> 100 µM (inactive)	> 100 µM (inactive)	73.3 µM (inactive)	> 100 µM (inactive)	> 100 µM (inactive)	–	–	> 100 µM (inactive)	> 100 µM (inactive)	> 100 µM (inactive)	> 100 µM (inactive)	> 100 µM (inactive)
